Converted amounts (≈) assume the structure as drawn.
Assays:
Format in all cases: cell-based
Escherichia coli = assay: Bacteriostatic activity, micro broth dilution MIC (CLSI); conditions: 20 hours; for MIC50 / MIC90: clinical strains (carbapenem-resistant), CAMHB; for MIC50: read-out: Escherichia coli Clinical strain MIC50; for MIC90: read-out: Escherichia coli Clinical strain MIC90; for MIC: standard strain ATCC25922, CAMHB
Description: (§1) The purpose of this test is to determine the bacteriostatic activity of the compounds of the present invention against a representative panel of strains (Gram-negative bacteria: […] ATCC 25922, Acinetobacter baumannii ATCC 19606; Gram-positive bacteria: Staphylococcus aureus ATCC29213). Bacteriostatic activity was determined by minimum inhibitory concentration (MIC), MIC50, MIC90. This test was entrusted to Shanghai Junj Lab Co., Ltd. Except for the test drugs, all other test materials were provided by Shanghai Junj Lab Co., Ltd.
(§2) The tested bacteria were several strains of clinically isolated carbapenem-resistant Escherichia coli, several strains of carbapenem-resistant Acinetobacter baumannii, several strains of methicillin-resistant Staphylococcus aureus, and several strains of sensitive Staphylococcus aureus. Duplicate strains isolated from the same patient were eliminated. There were also three quality control strains Escherichia coli ATCC 25922, Acinetobacter baumannii ATCC 19606, and Staphylococcus aureus ATCC 29213. The activity test of each compound was carried out on one or more strains of each of the above test bacteria.
(§3) According to the recommendations of relevant documents of the American Clinical and Laboratory Standards Institute (CLSI), the micro broth dilution method was used to determine the MIC of the compounds of the present invention against clinically isolated strains. The culture solution free of drug was used as the test bacteria positive control, the culture solution free of bacterial solution was used as the drug negative control, and the culture solution free of drug solution and bacterial solution was used as the blank control. • 4.1 Formulation of antibacterial drug: All the compounds of the present invention were dissolved in DMSO. The drug concentration range was 128 mg/L-0.06 mg/L. Specific method: The compounds of the present invention were successively diluted by 1:1 with DMSO to obtain an intermediate series with a range of 25600 mg/L-12.5 mg/L. 30 μL of solution from each tube of the intermediate series of each compound was added to a 3 mL/tube series of single broth tube, and mixed well to obtain an intermediate series with a range of 256 mg/L to 0.125 mg/L. The diluted series solution was added to the drug susceptibility plate line by line, 50 μL of solution per well. All ranges became investigated ranges after being mixed with an equal volume of bacterial solution: 128-0.06 mg/L. • 4.2 Culture medium: The drug susceptibility test used cation adjusted Mueller-Hinton broth (CAMHB). • 4.3 Amount of inoculum: The test bacteria cultured overnight were adjusted to 0.5 McFarland turbidity by the direct colony suspension method, and diluted 100 folds, the final inoculum amount was 10^5 CFU/mL. • 4.4 Culture conditions: The test bacteria were cultured at 35±2° C. for 20 hours in air. 5. Interpretation and Judgment of Results
(§4) The drug susceptibility test results were interpretated by reference to CLSI 2019 edition M100 29th edition criteria.
(§5) The results of drug susceptibility test were statistically analyzed by WHONET version 5.6 software.
(§6) The culture solution free of bacterial solution was used as the drug negative control, and the culture solution free of drug solution and bacterial solution was used as the blank control, wherein no bacteria grew in both solutions.

Acinetobacter baumannii = assay: as above; conditions: 20 hours; for MIC50 / MIC90: clinical strains (carbapenem-resistant), CAMHB; for MIC50: read-out: Acinetobacter baumannii Clinical strain MIC50; for MIC90: read-out: Acinetobacter baumannii Clinical strain MIC90; for MIC: standard strain ATCC19606, CAMHB
Description: as §1, §2, §3, §4, §5, §6

Staphylococcus aureus = assay: as above; conditions: 20 hours; for MIC50 / MIC90: clinical strains (methicillin-resistant and sensitive), CAMHB; for MIC50: read-out: Staphylococcus aureus Clinical strain MIC50; for MIC90: read-out: Staphylococcus aureus Clinical strain MIC90; for MIC: standard strain ATCC29213, CAMHB
Description: as §1, §2, §3, §4, §5, §6

[1] = tested on: Mouse prostate cancer cell line RM-1; assay: Inhibitory activity on cancer cells, CellTiter-Glo viability, 72 h; conditions: RM-1, 72 h
From the text: (§7) • HUVEC (purchased from Allcells Biological Technology (Shanghai) Co., Ltd.); UM-UC-3 (ATCC); LNCaP Clone FGC (ATCC); RM-1 (purchased from Nanjing Cobioer Biosciences Co., Ltd.) 2. Reagents • Endothelial cell complete medium (Allcells, H-004) • Medium RPMI1640 (ATCC, 30-2001) • Medium EMEM (ATCC, 30-2003) • Medium DMEM (Gibco, 12430-054) • Fetal bovine serum (Gibco, 10091148) • Penicillin-streptomycin double anti-body (Gibco, S110JV) • DPBS (Gibco, 14190-144) • CellTiter-Glo® kit (Promega, G7573) • Trypsin (0.25%), phenol red (Gibco, 25200-056) • DMSO (Sigma, D2650) 3. Instruments • Biological safety cabinet (Suzhou Antai Airtech Co., Ltd., BSC-1300A II) • Inverted microscope (Nikon, CKX53) • Automated cell counter (Life Technologies, countess II) • Multifunctional microplate reader (Biotek, H1FM) • Shaker (Hangzhou Allsheng Instruments Co., Ltd., OS-100) • GraphPad Prism 5.0 software • XLFIT 5.3 (Inforstack Shanghai Co., Ltd.) 4. Test Method
(§8) In this test method, the following experiments were carried out in a biological safety cabinet, and the specific steps are as follows: • (1) On the first day, the cells were seeded in a 96-well plate, and the previous medium was poured off. 5 mL of DPBS was added to wash the cells, and then removed by a pipette. Then, 1 mL of trypsin (0.25%) was added, and the plate was placed in a cell culture incubator at 37° C., 5% CO2 for digestion, and taken out after about 2 to 5 minutes. New corresponding medium was added, and pipetted to resuspend the cells evenly, and the cells were then counted with an automated cell counter.
(§9) The digestion was observed using an inverted microscope.
(§10) Regarding to HUVEC, the medium used was endothelial cell complete medium; regarding to UM-UC-3, the medium used was 89v % EMEM+10v % fetal bovine serum+1 v % penicillin-streptomycin double anti-body; regarding to LNcaP Clone FGC, the medium used was 89v % RPM11640+10v % fetal bovine serum+1 v % penicillin-streptomycin double anti-body; and regarding to RM-1, the medium used was 89v % DMEM+10v % fetal bovine serum+1v % penicillin-streptomycin double anti-body. • (2) HUVEC cells were seeded in columns 1 to 11 of a 96-well plate (Corning, Cat. No. 3610) at a density of 2000 cells per well in 100 μL of medium, and the medium free of cell was added to the wells of column 12. The other three types of cells were also seeded, wherein UM-UC-3 and RM-1 cells were seeded at a density of 3000 cells per well, and LNCap Clone FGC cells were seeded at a density of 5000 cells per well. Then, the plate was placed in an incubator at 37° C., 5% CO2 for 24 hours. • (3) On the second day, the compounds of the present invention and the reference drug nitroxoline (obtained according to the preparation method disclosed in the prior art) were diluted in gradient (2.5 folds, started at 100 μmol) to obtain 8 dose points (there were a total of 8 columns of wells; the first column of wells had the highest concentration, the concentration decreased in turn, and the last column of wells had the lowest concentration). 10 uL of the compound diluted in gradient was added to the 100 μL of cells in column 1 to column 10 with an 8-channel pipette. 10 μL of the corresponding medium containing 0.33v % DMSO was added to column 11 and column 12. The plate was incubated in an incubator at 37° C., 5% CO2 for 72 hours (note: column 11 was used as MAX well with cells and no compounds; and column 12 was used as MIN well with no cells and no compounds). • (4) After treating with the compounds of the present invention for 72 hours, the cell viability detection reagents in the above CellTiter-Glo® kit were added to the 96-well plate at 50 μL per well according to the instructions. […]

[2] = tested on: Bladder cancer cell line UM-UC-3; assay: as above; conditions: Homo sapiens, UMUC3, UM-UC-3, 72 h
From the text: as §7, §8, §9, §10

[3] = tested on: Prostate cancer cell line LNcaP Clone FGC; assay: as above; conditions: Homo sapiens
From the text: as §7, §8, §9, §10

[4] = tested on: Endothelial cell line HUVEC; assay: Inhibitory activity on cells, CellTiter-Glo viability, 72 h; conditions: Homo sapiens
From the text: as §7, §8, §9, §10

O=[N+]([O-])c1ccc(O)c2nccc(Cl)c12 [Example 2, 4-chloro-5-nitroquinolin-8-ol]
MIC50 (Escherichia coli): 8 µg/mL (≈ 35.6 µM)
MIC90 (Escherichia coli): 8 µg/mL (≈ 35.6 µM)
MIC (Escherichia coli): 8 µg/mL (≈ 35.6 µM)
MIC50 (Acinetobacter baumannii): 4 µg/mL (≈ 17.8 µM)
MIC90 (Acinetobacter baumannii): 8 µg/mL (≈ 35.6 µM)
MIC50 (Staphylococcus aureus): 4 µg/mL (≈ 17.8 µM)
MIC90 (Staphylococcus aureus): 4 µg/mL (≈ 17.8 µM)
IC50 [1]: 3100 nM
IC50 [2]: 2000 nM
IC50 [3]: 4900 nM
IC50 [4]: 3000 nM

O=[N+]([O-])c1ccc(O)c2nccc(-c3ccccc3)c12 [Example 9, 5-nitro-4-phenylquinolin-8-ol]
MIC50 (Escherichia coli): 128 µg/mL (≈ 481 µM)
MIC90 (Escherichia coli): 128 µg/mL (≈ 481 µM)
MIC50 (Acinetobacter baumannii): 128 µg/mL (≈ 481 µM)
MIC90 (Acinetobacter baumannii): 128 µg/mL (≈ 481 µM)
MIC50 (Staphylococcus aureus): 4 µg/mL (≈ 15 µM)
MIC90 (Staphylococcus aureus): 8 µg/mL (≈ 30 µM)
MIC (Staphylococcus aureus): 4 µg/mL (≈ 15 µM)
IC50 [1]: 1000 nM
IC50 [2]: 500 nM
IC50 [3]: 1700 nM
IC50 [4]: 1300 nM

CC1CCCCN1c1ccnc2c(O)ccc([N+](=O)[O-])c12 (stereo not drawn) [Example 13, 4-(2-methylpiperidin-1-yl)-5-nitroquinolin-8-ol]
IC50 [1]: 2000 nM
IC50 [2]: 1600 nM
IC50 [3]: 1200 nM
IC50 [4]: 2500 nM

COc1ccnc2c(O)ccc([N+](=O)[O-])c12 [Example 16, 4-methoxy-5-nitroquinolin-8-ol]
MIC50 (Escherichia coli): 32 µg/mL (≈ 145 µM)
MIC90 (Escherichia coli): 32 µg/mL (≈ 145 µM)
MIC (Escherichia coli): 32 µg/mL (≈ 145 µM)
MIC50 (Acinetobacter baumannii): 32 µg/mL (≈ 145 µM)
MIC90 (Acinetobacter baumannii): 32 µg/mL (≈ 145 µM)
MIC (Acinetobacter baumannii): 32 µg/mL (≈ 145 µM)
MIC50 (Staphylococcus aureus): 4 µg/mL (≈ 18.2 µM)
MIC90 (Staphylococcus aureus): 4 µg/mL (≈ 18.2 µM)
MIC (Staphylococcus aureus): 4 µg/mL (≈ 18.2 µM)
IC50 [1]: 2100 nM
IC50 [2]: 1500 nM
IC50 [3]: 1800 nM

O=[N+]([O-])c1ccc(O)c2nccc(C3CC3)c12 [Example 19, 4-cyclopropyl-5-nitroquinolin-8-ol]
MIC50 (Escherichia coli): 8 µg/mL (≈ 34.7 µM)
MIC90 (Escherichia coli): 16 µg/mL (≈ 69.5 µM)
MIC (Escherichia coli): 8 µg/mL (≈ 34.7 µM)
MIC50 (Acinetobacter baumannii): 8 µg/mL (≈ 34.7 µM)
MIC90 (Acinetobacter baumannii): 16 µg/mL (≈ 69.5 µM)
MIC (Acinetobacter baumannii): 16 µg/mL (≈ 69.5 µM)
MIC50 (Staphylococcus aureus): 2 µg/mL (≈ 8.69 µM)
MIC90 (Staphylococcus aureus): 4 µg/mL (≈ 17.4 µM)
MIC (Staphylococcus aureus): 4 µg/mL (≈ 17.4 µM)
IC50 [1]: 900 nM
IC50 [2]: 2400 nM
IC50 [3]: 1900 nM
IC50 [4]: 1300 nM

CCOC(=O)N1CCN(c2ccnc3c(O)ccc([N+](=O)[O-])c23)CC1 [Example 22, ethyl 4-(8-hydroxy-5-nitroquinolin-4-yl)piperazine-1-carboxylate]
IC50 [1]: 2700 nM
IC50 [2]: 4000 nM
IC50 [3]: 2700 nM
IC50 [4]: 3000 nM

O=[N+]([O-])c1ccc(O)c2nccc(C3CCCC3)c12 [Example 24, 4-cyclopentyl-5-nitroquinolin-8-ol]
MIC50 (Escherichia coli): 32 µg/mL (≈ 124 µM)
MIC90 (Escherichia coli): 64 µg/mL (≈ 248 µM)
MIC (Escherichia coli): 64 µg/mL (≈ 248 µM)
MIC50 (Acinetobacter baumannii): 32 µg/mL (≈ 124 µM)
MIC90 (Acinetobacter baumannii): 64 µg/mL (≈ 248 µM)
MIC (Acinetobacter baumannii): 32 µg/mL (≈ 124 µM)
MIC50 (Staphylococcus aureus): 4 µg/mL (≈ 15.5 µM)
MIC90 (Staphylococcus aureus): 4 µg/mL (≈ 15.5 µM)
MIC (Staphylococcus aureus): 4 µg/mL (≈ 15.5 µM)
IC50 [1]: 1000 nM
IC50 [2]: 1700 nM
IC50 [3]: 800 nM
IC50 [4]: 1400 nM

O=[N+]([O-])c1ccc(O)c2ncccc12 [Nitroxoline, 5-nitro-8-hydroxyquinoline]
IC50 [1]: 4300 nM
IC50 [2]: 9200 nM
IC50 [3]: 5100 nM
IC50 [4]: 4500 nM

— patent publication US12503440B2, “Nitroxoline derivative, preparation method therefor, and use thereof” (Jiangsu Yahong Meditech Co., Ltd., priority 2020, dated 2025)
